Tested on: Bacillus stearothermophilus IFO 12550
Assay: Viable Count of Bacillus stearothermophilus IFO 12550 in Erythritol Solution (heat resistant bacteria)
Assay type: cell-based
Protocol: Erythritol solutions of respective concentrations in the range of from 30 to 70% were prepared. To these was inoculated Bacillus stearothermophilus IFO 12550 as a heat resistant bacterium in a population (concentration) of 10,000 cells/mL or more.
After the inoculation, the solutions were stored at 50, 60 or 75° C., respectively, for 56 days and the number of viable cell was determined daily. The determination of the number of viable cell was performed by in the same manner as in Example 1.

OC[C@@H](O)[C@@H](O)CO [Erythritol Solution, erythritol]
The Number of Viable Cell (50° C., 30% w/w, Day 0): 10000 or more cells/mL
The Number of Viable Cell (50° C., 30% w/w, Day 3): 70 cells/mL
The Number of Viable Cell (50° C., 30% w/w, Day 7): 60 cells/mL
The Number of Viable Cell (50° C., 30% w/w, Day 14): 40 cells/mL
The Number of Viable Cell (50° C., 30% w/w, Day 28): 60 cells/mL
The Number of Viable Cell (50° C., 30% w/w, Day 56): 50 cells/mL
The Number of Viable Cell (50° C., 40% w/w, Day 0): 10000 or more cells/mL
The Number of Viable Cell (50° C., 40% w/w, Day 3): 40 cells/mL
The Number of Viable Cell (50° C., 40% w/w, Day 7): 50 cells/mL
The Number of Viable Cell (50° C., 40% w/w, Day 14): 50 cells/mL
The Number of Viable Cell (50° C., 40% w/w, Day 28): 50 cells/mL
The Number of Viable Cell (50° C., 40% w/w, Day 56): 60 cells/mL
The Number of Viable Cell (50° C., 50% w/w, Day 0): 10000 or more cells/mL
The Number of Viable Cell (50° C., 50% w/w, Day 3): 100 cells/mL
The Number of Viable Cell (50° C., 50% w/w, Day 7): 100 cells/mL
The Number of Viable Cell (50° C., 50% w/w, Day 14): 50 cells/mL
The Number of Viable Cell (50° C., 50% w/w, Day 28): 70 cells/mL
The Number of Viable Cell (50° C., 50% w/w, Day 56): 120 cells/mL
The Number of Viable Cell (60° C., 30% w/w, Day 0): 10000 or more cells/mL
The Number of Viable Cell (60° C., 30% w/w, Day 3): 90 cells/mL
The Number of Viable Cell (60° C., 30% w/w, Day 7): 60 cells/mL
The Number of Viable Cell (60° C., 30% w/w, Day 14): 90 cells/mL
The Number of Viable Cell (60° C., 30% w/w, Day 28): 300 cells/mL
The Number of Viable Cell (60° C., 30% w/w, Day 56): 0 cells/mL
The Number of Viable Cell (60° C., 40% w/w, Day 0): 10000 or more cells/mL
The Number of Viable Cell (60° C., 40% w/w, Day 3): 60 cells/mL
The Number of Viable Cell (60° C., 40% w/w, Day 7): 70 cells/mL
The Number of Viable Cell (60° C., 40% w/w, Day 14): 200 cells/mL
The Number of Viable Cell (60° C., 40% w/w, Day 28): 320 cells/mL
The Number of Viable Cell (60° C., 40% w/w, Day 56): 0 cells/mL
The Number of Viable Cell (60° C., 50% w/w, Day 0): 10000 or more cells/mL
The Number of Viable Cell (60° C., 50% w/w, Day 3): 100 cells/mL
The Number of Viable Cell (60° C., 50% w/w, Day 7): 150 cells/mL
The Number of Viable Cell (60° C., 50% w/w, Day 14): 200 cells/mL
The Number of Viable Cell (60° C., 50% w/w, Day 28): 330 cells/mL
The Number of Viable Cell (60° C., 50% w/w, Day 56): 0 cells/mL
The Number of Viable Cell (60° C., 60% w/w, Day 0): 10000 or more cells/mL
The Number of Viable Cell (60° C., 60% w/w, Day 3): 130 cells/mL
The Number of Viable Cell (60° C., 60% w/w, Day 7): 100 cells/mL
The Number of Viable Cell (60° C., 60% w/w, Day 14): 150 cells/mL
The Number of Viable Cell (60° C., 60% w/w, Day 28): 120 cells/mL
The Number of Viable Cell (60° C., 60% w/w, Day 56): 0 cells/mL
time after which all the cells died (75° C.): 14 days
The Number of Viable Cell (75° C., 30% w/w, Day 0): 10000 or more cells/mL
The Number of Viable Cell (75° C., 30% w/w, Day 3): 350 cells/mL
The Number of Viable Cell (75° C., 30% w/w, Day 7): 340 cells/mL
The Number of Viable Cell (75° C., 30% w/w, Day 14): 0 cells/mL
The Number of Viable Cell (75° C., 30% w/w, Day 28): 0 cells/mL
The Number of Viable Cell (75° C., 30% w/w, Day 56): 0 cells/mL
The Number of Viable Cell (75° C., 40% w/w, Day 0): 10000 or more cells/mL
The Number of Viable Cell (75° C., 40% w/w, Day 3): 330 cells/mL
The Number of Viable Cell (75° C., 40% w/w, Day 7): 490 cells/mL
The Number of Viable Cell (75° C., 40% w/w, Day 14): 0 cells/mL
The Number of Viable Cell (75° C., 40% w/w, Day 28): 0 cells/mL
The Number of Viable Cell (75° C., 40% w/w, Day 56): 0 cells/mL
The Number of Viable Cell (75° C., 50% w/w, Day 0): 10000 or more cells/mL
